PMC3914206

Legend:
Type in all cases: binding
Settings in all cases: Compound Concentration 10 µM
panel of 442 kinases [1] = target: T1, panel of 442 kinases (Homo sapiens, UniProt O43293)
T1 construct: purchased KINOMEscan
Text: (§1) We assessed the selectivity of members of this scaffold using the KINOMEscan methodology across a near comprehensive panel of 442 kinases [[18,27]].

panel of 442 kinases [2] = target: T2, panel of 442 kinases (Homo sapiens, UniProt Q9Y463)
T2 construct: purchased KINOMEscan
T2 sequence (Q9Y463 whole entry): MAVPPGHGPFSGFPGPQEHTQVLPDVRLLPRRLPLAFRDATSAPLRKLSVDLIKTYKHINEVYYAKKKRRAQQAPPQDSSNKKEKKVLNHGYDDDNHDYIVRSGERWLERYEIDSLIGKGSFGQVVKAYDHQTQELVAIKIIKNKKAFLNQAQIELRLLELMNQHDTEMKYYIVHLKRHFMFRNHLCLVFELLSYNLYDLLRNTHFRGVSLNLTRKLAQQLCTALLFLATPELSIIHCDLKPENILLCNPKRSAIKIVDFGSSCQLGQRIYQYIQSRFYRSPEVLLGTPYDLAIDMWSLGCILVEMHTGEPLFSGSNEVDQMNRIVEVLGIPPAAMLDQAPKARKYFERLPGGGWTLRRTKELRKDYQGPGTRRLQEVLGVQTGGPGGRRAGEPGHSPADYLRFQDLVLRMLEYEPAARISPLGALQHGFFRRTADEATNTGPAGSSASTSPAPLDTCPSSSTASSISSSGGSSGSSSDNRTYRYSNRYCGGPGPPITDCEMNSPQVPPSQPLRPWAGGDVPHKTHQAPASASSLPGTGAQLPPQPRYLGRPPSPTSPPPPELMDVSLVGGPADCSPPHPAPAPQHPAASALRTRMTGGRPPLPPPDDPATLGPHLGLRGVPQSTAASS
Text: as §1

panel of 442 kinases [3] = target: T3, panel of 442 kinases (Homo sapiens, UniProt P10721, A829P)
T3 construct: purchased KINOMEscan
T3 sequence (P10721 26-976 A829P): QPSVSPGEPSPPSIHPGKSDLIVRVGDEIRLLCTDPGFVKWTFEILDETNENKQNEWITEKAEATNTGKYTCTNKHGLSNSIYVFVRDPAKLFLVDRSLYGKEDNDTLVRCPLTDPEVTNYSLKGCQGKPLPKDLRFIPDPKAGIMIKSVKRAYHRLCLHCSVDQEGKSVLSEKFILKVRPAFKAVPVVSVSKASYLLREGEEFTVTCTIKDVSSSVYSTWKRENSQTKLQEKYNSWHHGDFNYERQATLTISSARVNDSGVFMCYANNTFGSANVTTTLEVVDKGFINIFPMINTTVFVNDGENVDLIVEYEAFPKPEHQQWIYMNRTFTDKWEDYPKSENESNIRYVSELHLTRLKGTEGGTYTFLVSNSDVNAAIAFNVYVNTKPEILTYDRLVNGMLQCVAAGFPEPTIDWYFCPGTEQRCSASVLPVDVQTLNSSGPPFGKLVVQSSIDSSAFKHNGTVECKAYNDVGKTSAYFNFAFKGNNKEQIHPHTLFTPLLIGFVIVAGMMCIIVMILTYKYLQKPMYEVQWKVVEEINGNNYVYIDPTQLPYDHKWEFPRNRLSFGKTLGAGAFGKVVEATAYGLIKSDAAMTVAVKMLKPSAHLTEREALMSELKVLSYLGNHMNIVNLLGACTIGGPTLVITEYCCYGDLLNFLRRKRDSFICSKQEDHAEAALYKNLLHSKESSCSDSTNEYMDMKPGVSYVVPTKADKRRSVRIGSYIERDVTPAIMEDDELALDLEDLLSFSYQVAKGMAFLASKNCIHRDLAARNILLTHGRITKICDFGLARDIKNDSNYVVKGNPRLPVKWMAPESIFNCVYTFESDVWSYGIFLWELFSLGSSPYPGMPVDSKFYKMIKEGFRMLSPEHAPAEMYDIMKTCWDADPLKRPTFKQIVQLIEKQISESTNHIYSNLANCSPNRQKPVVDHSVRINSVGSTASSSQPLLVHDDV
Text: as §1

T1 sequence (O43293 whole entry): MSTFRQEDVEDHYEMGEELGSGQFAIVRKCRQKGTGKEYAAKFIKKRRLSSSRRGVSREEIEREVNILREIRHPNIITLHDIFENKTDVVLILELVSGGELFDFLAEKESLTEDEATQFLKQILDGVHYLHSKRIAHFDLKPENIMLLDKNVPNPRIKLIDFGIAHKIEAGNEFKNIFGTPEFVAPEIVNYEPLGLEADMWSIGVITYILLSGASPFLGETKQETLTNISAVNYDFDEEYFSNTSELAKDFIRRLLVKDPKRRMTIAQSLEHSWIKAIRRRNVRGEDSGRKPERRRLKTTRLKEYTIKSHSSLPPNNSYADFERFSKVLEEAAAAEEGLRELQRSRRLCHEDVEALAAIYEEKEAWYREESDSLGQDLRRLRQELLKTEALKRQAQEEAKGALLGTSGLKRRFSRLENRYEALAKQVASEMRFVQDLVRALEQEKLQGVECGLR

| SMILES | KINOMEscan: DAPK3 (panel of 442 kinases [1]) | KINOMEscan: DYRK1B (panel of 442 kinases [2]) | KINOMEscan: KIT(A829P) (panel of 442 kinases [3]) |
| --- | --- | --- | --- |
| CCOc1cc(C(=O)N2CCC(N3CCN(C)CC3)CC2)ccc1Nc1ncc2c(n1)N(C1CCCC1)c1ccccc1C(=O)N2C [Compound 26] | 100 | 71 | 74 |
| COc1cc(C(=O)N2CCC(N3CCN(C)CC3)CC2)ccc1Nc1ncc2c(n1)N(C1CCCC1)c1ccccc1C(=O)N2C [Compound 25, 11-cyclopentyl-2-((2-methoxy-4-(4-(4-methylpiperazin-1-yl)piperidine-1-carbonyl)phenyl)amino)-5-methyl-5H-benzo[e]pyrimido[5,4-b][1,4]diazepin-6(11H)-one] | 86 | 69 | 95 |
| COc1cc(C(=O)N2CCC(N3CCN(C)CC3)CC2)ccc1Nc1ncc2c(n1)N(C)c1ccccc1C(=O)N2C [15 (LRRK2-IN-1)] | 67 | 94 | 100 |
